Laboratory results: US20130158043A1, “PAK INHIBITORS FOR THE TREATMENT OF CANCER” (AFRAXIS, INC., priority 2011, published 2013)

Target: T1, p-PAK1(S144) (Rattus norvegicus, UniProt P35465)
T1 construct: endogenous in cells; host or cells: RT4-D6P2T
Assay: In vitro p-PAK1(S144) cellular HTRF assay
Format: cell-based
Conditions: cell line RT4-D6P2T, read-out: pPAK1(S144) IC50
Description: Compounds for treatment of cancer are subject to in vitro cellular HTRF assay for p-PAK1(S144). The cell line is RT4-D6P2T. The HTRF assay kits are obtained from Cisbio Bioassays, 135 South Road, Bedford, Mass. 01730, USA.

T1 sequence (P35465 whole entry): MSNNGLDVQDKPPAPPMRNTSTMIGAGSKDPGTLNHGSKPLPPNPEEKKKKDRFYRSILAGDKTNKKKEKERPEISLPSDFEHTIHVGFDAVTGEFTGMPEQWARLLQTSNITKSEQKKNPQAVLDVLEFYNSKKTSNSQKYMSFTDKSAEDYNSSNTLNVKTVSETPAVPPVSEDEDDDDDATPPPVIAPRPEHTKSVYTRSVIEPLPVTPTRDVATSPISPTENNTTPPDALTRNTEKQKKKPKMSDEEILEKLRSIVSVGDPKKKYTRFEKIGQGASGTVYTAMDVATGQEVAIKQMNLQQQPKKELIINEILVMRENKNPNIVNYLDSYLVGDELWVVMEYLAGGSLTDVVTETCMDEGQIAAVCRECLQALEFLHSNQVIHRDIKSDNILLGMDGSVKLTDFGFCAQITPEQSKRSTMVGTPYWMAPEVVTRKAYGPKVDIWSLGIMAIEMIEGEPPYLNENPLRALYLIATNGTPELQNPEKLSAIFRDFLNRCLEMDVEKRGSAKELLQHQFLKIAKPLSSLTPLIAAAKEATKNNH

IC50	Structure (SMILES)
50 to 500 nM	CN1CCN(c2ccc(Nc3ncc4cc(-c5ccc(-c6cccnc6F)cc5Cl)c(=O)n(C)c4n3)cc2)CC1
50 to 500 nM	CCN1CCN(c2ccc(Nc3ncc4cc(-c5ccc(-c6cccnc6)cc5Cl)c(=O)n(CC)c4n3)cc2F)CC1 [drawing 756]
